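Where inhibition never reached the appropriate level, the endpoint shown equals the highest concentration tested. Otherwise, values were interpolated linearly from a five-concentration, 48-hour dose response in 96-well plates. GI50 marks 50% less growth. TGI: concentration producing complete growth inhibition.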
What was measured:
Test in all cases: DTP human tumour cell line panel, 48 h
[1] = test system: ACHN renal
[2] = test system: DU-145 prostate
[3] = test system: HCT-116 colon
[4] = test system: HT29 colon
[5] = test system: MALME-3M melanoma
[6] = test system: NCI/ADR-RES ovarian
[7] = test system: OVCAR-4 ovarian
[8] = test system: PC-3 prostate
[9] = test system: SF-539 CNS
[10] = test system: SK-MEL-2 melanoma

O=C(Nc1n[nH]c2cc(-c3cc(F)ccc3F)ccc12)C1CC1
GI50 [1]: > 25 µM
TGI [1]: > 25 µM
GI50 [2]: 17.7 µM
TGI [2]: > 25 µM
GI50 [3]: 9.78 µM
TGI [3]: > 25 µM
GI50 [4]: 9.42 µM
TGI [4]: > 25 µM
GI50 [5]: 14.2 µM
TGI [5]: > 25 µM
GI50 [6]: 9.31 µM
TGI [6]: > 25 µM
GI50 [7]: 13.2 µM
TGI [7]: > 25 µM
GI50 [8]: 17.6 µM
TGI [8]: > 25 µM
GI50 [9]: 13.5 µM
TGI [9]: > 25 µM
GI50 [10]: 12.2 µM
TGI [10]: > 25 µM

N=C1CCCC1C(=S)SCCC(N)=O (configuration not stated)
TGI [1]: > 100 µM
TGI [2]: > 100 µM
TGI [3]: > 100 µM
TGI [4]: > 100 µM
TGI [5]: > 100 µM
TGI [6]: > 100 µM
TGI [7]: > 100 µM
TGI [8]: > 100 µM
TGI [9]: > 100 µM
TGI [10]: > 100 µM

Cn1c(I)c(C#C[Si](C)(C)C)c(=O)n(C(=O)c2ccccc2)c1=O
GI50 [1]: 2.9 µM
TGI [1]: 7.83 µM
GI50 [2]: 1.95 µM
TGI [2]: 3.78 µM
GI50 [3]: 1.74 µM
TGI [3]: 3.44 µM
GI50 [4]: 3.32 µM
TGI [4]: 15.8 µM
GI50 [5]: 2.72 µM
TGI [5]: 6.63 µM
GI50 [6]: 22.4 µM
TGI [6]: 48.8 µM
GI50 [7]: 4.59 µM
TGI [7]: 15.1 µM
GI50 [8]: 3.52 µM
TGI [8]: 13.5 µM
GI50 [9]: 5.3 µM
TGI [9]: 12.1 µM
GI50 [10]: 12.8 µM
TGI [10]: 26 µM

N#C/C(=C\c1ccc2[nH]ccc2c1)C(=O)NCCCCNC(=O)/C(C#N)=C/c1ccc2[nH]ccc2c1
TGI [1]: > 31.6 µM
TGI [2]: > 10 µM
TGI [3]: > 31.6 µM
TGI [4]: > 31.6 µM
TGI [5]: > 31.6 µM
TGI [6]: > 10 µM
TGI [7]: > 31.6 µM
TGI [8]: > 10 µM
TGI [9]: > 31.6 µM
TGI [10]: > 31.6 µM

COc1cc2c(cc1OCCNC(=O)/C=C1\C[C@H]3C=Nc4cc(OCc5ccccc5)c(OC)cc4C(=O)N3C1)N=C[C@@H]1CCCN1C2=O
GI50 [1]: 25.8 µM
TGI [1]: 71.5 µM
GI50 [2]: 19.4 µM
TGI [2]: 37.3 µM
GI50 [3]: 2.93 µM
TGI [3]: 11.9 µM
GI50 [4]: 20.3 µM
TGI [4]: > 100 µM
GI50 [5]: 2.2 µM
TGI [5]: 6.69 µM
GI50 [6]: > 100 µM
TGI [6]: > 100 µM
GI50 [7]: 19.7 µM
TGI [7]: 65.5 µM
GI50 [8]: 3.53 µM
TGI [8]: 33.7 µM
GI50 [10]: 1.58 µM
TGI [10]: 3.56 µM

CCOC(=O)Nc1ccc2nc(-c3cscn3)[nH]c2c1
GI50 [1]: 8.45 µM
TGI [1]: > 100 µM
GI50 [2]: 9.61 µM
TGI [2]: > 100 µM
GI50 [3]: 3.87 µM
TGI [3]: > 100 µM
GI50 [4]: 2.6 µM
TGI [4]: 97.5 µM
GI50 [5]: 1.75 µM
TGI [5]: > 100 µM
GI50 [6]: 2.71 µM
TGI [6]: > 74.9 µM
GI50 [7]: 48.9 µM
TGI [7]: > 100 µM
GI50 [8]: 10.4 µM
TGI [8]: > 100 µM
GI50 [9]: 3.32 µM
TGI [9]: 20.6 µM
GI50 [10]: 3.25 µM
TGI [10]: > 100 µM

NC(N)=N/N=C\c1ccc(OCc2ccccc2)cc1
GI50 [1]: 2.64 µM
TGI [1]: 8.66 µM
GI50 [2]: 2.71 µM
TGI [2]: 8.45 µM
GI50 [3]: 1.51 µM
TGI [3]: 3.14 µM
GI50 [4]: 1.87 µM
TGI [4]: 3.87 µM
GI50 [5]: 2.32 µM
TGI [5]: 6.03 µM
GI50 [6]: 1.82 µM
TGI [6]: 4.93 µM
GI50 [7]: 2.63 µM
TGI [7]: 13.8 µM
GI50 [8]: 2.41 µM
TGI [8]: 10.6 µM
GI50 [9]: 1.7 µM
TGI [9]: 4.06 µM
GI50 [10]: 1.74 µM
TGI [10]: 3.38 µM

CC(C)C[C@@H](N)[C@@H](O)C(=O)N[C@H](C(=O)N[C@H](C(=O)N[C@@H](CC(=O)O)C(=O)O)C(C)C)C(C)C
GI50 [1]: > 20 µM
TGI [1]: > 20 µM
GI50 [2]: > 20 µM
TGI [2]: > 20 µM
GI50 [3]: > 20 µM
TGI [3]: > 20 µM
GI50 [4]: > 20 µM
TGI [4]: > 20 µM
GI50 [5]: > 20 µM
TGI [5]: > 20 µM
GI50 [6]: > 20 µM
TGI [6]: > 20 µM
GI50 [7]: > 20 µM
TGI [7]: > 20 µM
GI50 [8]: > 20 µM
TGI [8]: > 20 µM
GI50 [9]: > 20 µM
TGI [9]: > 20 µM
GI50 [10]: > 20 µM
TGI [10]: > 20 µM

CSc1nc(Nc2cccc(NC(=O)CCl)c2)c(C#N)c(-c2cccc([N+](=O)[O-])c2)n1
GI50 [1]: 0.534 µM
TGI [1]: 1.91 µM
GI50 [2]: 2.25 µM
TGI [2]: 4.57 µM
GI50 [4]: 2.36 µM
TGI [4]: 5.53 µM
GI50 [5]: 0.191 µM
TGI [5]: 0.635 µM
GI50 [6]: 2.38 µM
TGI [6]: 7.64 µM
GI50 [7]: 2.06 µM
TGI [7]: 6.77 µM
GI50 [8]: 1.61 µM
TGI [8]: 3.73 µM
GI50 [9]: 0.216 µM
TGI [9]: 0.528 µM
GI50 [10]: 2.05 µM
TGI [10]: 5.22 µM

O=C1c2cccc3cccc(c23)C(=O)N1CCCCCN1CCN(CCN=c2cc3n(-c4ccc(Cl)cc4)c4ccccc4nc-3cc2Nc2ccc(Cl)cc2)CC1
GI50 [1]: 2.88 µM
TGI [1]: > 50 µM
GI50 [2]: 38.3 µM
TGI [2]: > 50 µM
GI50 [3]: 7.79 µM
TGI [3]: 17.5 µM
GI50 [4]: 9.13 µM
TGI [4]: > 50 µM
GI50 [5]: 20.8 µM
TGI [5]: > 50 µM
GI50 [6]: 6.95 µM
TGI [6]: 19.4 µM
GI50 [7]: 6.22 µM
TGI [7]: 17.3 µM
GI50 [8]: 6.36 µM
TGI [8]: 28.4 µM
GI50 [9]: 12.1 µM
TGI [9]: 31 µM

Nc1cc2c3c(cccc3c1)C(=O)N(CCN1CCCC1)C2=O
GI50 [2]: 2.01 µM
TGI [2]: 37.4 µM
GI50 [3]: 2.73 µM
TGI [3]: > 35 µM
GI50 [4]: 3.11 µM
TGI [4]: 22.2 µM
GI50 [5]: 2.49 µM
TGI [5]: 7.68 µM
GI50 [6]: 3.62 µM
TGI [6]: > 51.4 µM
GI50 [7]: 4.75 µM
TGI [7]: 42.5 µM
GI50 [8]: 3.89 µM
TGI [8]: > 66.6 µM
GI50 [9]: 3.87 µM
TGI [9]: 18.2 µM
GI50 [10]: 4.96 µM
TGI [10]: 19.2 µM

Clc1ccccc1C(Nc1cnccn1)Nc1cnccn1
TGI [1]: > 100 µM
TGI [2]: > 100 µM
TGI [3]: > 100 µM
TGI [4]: > 100 µM
TGI [5]: > 100 µM
TGI [6]: > 100 µM
TGI [7]: > 100 µM
TGI [8]: > 100 µM
TGI [9]: > 100 µM
TGI [10]: > 100 µM

Oc1ccc(Cl)cc1C=Nc1cnc2ccccc2c1
TGI [1]: > 100 µM
TGI [2]: > 100 µM
TGI [3]: > 100 µM
TGI [4]: > 100 µM
TGI [5]: > 100 µM
TGI [6]: > 100 µM
TGI [7]: > 100 µM
TGI [8]: > 88.4 µM
TGI [9]: 45.8 µM
TGI [10]: > 80.6 µM

CN1CCN(C2=NC(=O)/C(=C\c3ccc(N(C)C)cc3)S2)CC1
GI50 [1]: > 100 µM
TGI [1]: > 100 µM
GI50 [2]: > 100 µM
TGI [2]: > 100 µM
GI50 [3]: > 100 µM
TGI [3]: > 100 µM
GI50 [4]: 39.5 µM
TGI [4]: > 100 µM
GI50 [5]: > 100 µM
TGI [5]: > 100 µM
GI50 [6]: > 100 µM
TGI [6]: > 100 µM
GI50 [7]: > 100 µM
TGI [7]: > 100 µM
GI50 [8]: > 100 µM
TGI [8]: > 100 µM
GI50 [9]: > 100 µM
TGI [9]: > 100 µM
GI50 [10]: > 100 µM
TGI [10]: > 100 µM

Reference: PubChem BioAssay (NCI)
